Tests used:
[1] = target: CDK1/Cyclin B1 (Homo sapiens, UniProt P06493); experiment: CDK1/Cyclin B1 TR-FRET biochemical assay, 0.015 mM ATP; settings: 0.15 μM Rb (Ser780)-biotin substrate, 120 min reaction, Table 1
[2] = target: CDK2/Cyclin E1 (Homo sapiens, UniProt P24941); experiment: CDK2/Cyclin E1 TR-FRET biochemical assay, 0.060 mM ATP; settings: 0.15 μM Rb (Ser780)-biotin substrate, 120 min reaction, Table 1

CDK1/Cyclin B1, sequence (P06493 whole entry): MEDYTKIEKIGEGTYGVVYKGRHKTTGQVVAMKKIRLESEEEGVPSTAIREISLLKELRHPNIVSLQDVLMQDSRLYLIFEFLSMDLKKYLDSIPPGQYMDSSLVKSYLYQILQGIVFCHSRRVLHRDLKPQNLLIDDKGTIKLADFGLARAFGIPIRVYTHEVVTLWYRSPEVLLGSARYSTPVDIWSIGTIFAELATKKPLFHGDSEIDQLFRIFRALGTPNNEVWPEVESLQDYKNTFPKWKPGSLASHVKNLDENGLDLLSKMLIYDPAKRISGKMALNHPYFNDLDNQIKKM
CDK1/Cyclin B1, sequence (P14635 whole entry partner): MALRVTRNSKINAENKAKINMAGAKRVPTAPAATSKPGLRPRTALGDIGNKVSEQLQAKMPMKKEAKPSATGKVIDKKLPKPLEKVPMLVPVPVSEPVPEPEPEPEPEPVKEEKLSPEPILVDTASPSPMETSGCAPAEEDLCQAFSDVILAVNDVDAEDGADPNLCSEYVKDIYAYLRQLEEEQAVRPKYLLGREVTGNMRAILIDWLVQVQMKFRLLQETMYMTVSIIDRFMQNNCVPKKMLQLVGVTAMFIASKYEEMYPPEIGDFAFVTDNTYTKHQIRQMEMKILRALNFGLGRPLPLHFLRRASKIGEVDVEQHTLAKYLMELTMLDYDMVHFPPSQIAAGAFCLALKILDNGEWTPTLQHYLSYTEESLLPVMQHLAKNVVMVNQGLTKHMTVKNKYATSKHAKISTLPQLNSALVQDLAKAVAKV

| Compound | IC50 [1] | IC50 [2] |
| --- | --- | --- |
| CC1(C)CN([C@H]2CC[C@@H](c3cc(Nc4ccc5c(c4F)CNS5(=O)=O)n[nH]3)C2)C(=O)N1 (relative stereo) [Example 85, cis-1-(3-(3-((4-fluoro-1,1-dioxido-2,3-dihydrobenzo[d]isothiazol-5-yl)amino)-1H-pyrazol-5-yl)cyclopentyl)-4,4-dimethylimidazolidin-2-one] | 0.289 µM | 0.031 µM |
| CN1C(=O)N([C@H]2CC[C@@H](c3cc(Nc4ccc5c(c4F)CNS5(=O)=O)n[nH]3)C2)C(=O)C1(C)C (relative stereo) [Example 86, cis-3-(3-(3-((4-fluoro-1,1-dioxido-2,3-dihydrobenzo[d]isothiazol-5-yl)amino)-1H-pyrazol-5-yl)cyclopentyl)-1,5,5-trimethylimidazolidine-2,4-dione] | 1.34 µM | 0.073 µM |
| CC1(C)CC(=O)N([C@H]2CC[C@@H](c3cc(Nc4ccc5c(c4F)CNS5(=O)=O)n[nH]3)C2)C1=O (relative stereo) [Example 87, cis-1-(3-(3-((4-fluoro-1,1-dioxido-2,3-dihydrobenzo[d]isothiazol-5-yl)amino)-1H-pyrazol-5-yl)cyclopentyl)-3,3-dimethylpyrrolidine-2,5-dione] | 3.25 µM | 0.229 µM |
| CC(C)(C)c1cnc([C@@H]2CC[C@H](c3cc(Nc4ccc5c(c4)CS(=O)(=O)N5)n[nH]3)C2)o1 (relative stereo) [Example 135, cis-5-((5-(3-(5-(tert-butyl)oxazol-2-yl)cyclopentyl)-1H-pyrazol-3-yl)amino)-1,3-dihydrobenzo[c]isothiazole 2,2-dioxide] | 0.011 µM | 0.0046 µM |
| CC(C)(C)c1cnc([C@@H]2CC[C@H](c3cc(Nc4ccc5c(c4F)CS(=O)(=O)N5)n[nH]3)C2)o1 (relative stereo) [Example 145, cis-5-((5-(3-(5-(tert-butyl)oxazol-2-yl)cyclopentyl)-1H-pyrazol-3-yl)amino)-4-fluoro-1,3-dihydrobenzo[c]isothiazole 2,2-dioxide] | 0.011 µM | 0.0033 µM |
| CC(C)(C)c1n[nH]cc1OC1CCC(c2cc(Nc3ccc4c(c3F)CNS4(=O)=O)n[nH]2)C1 (single isomer, unassigned) [Example 74a, cis-5-((5-(3-((3-(tert-butyl)-1H-pyrazol-4-yl)oxy)cyclopentyl)-1H-pyrazol-3-yl)amino)-4-fluoro-2,3-dihydrobenzo[d]isothiazole 1,1-dioxide] | 0.301 µM | 0.0049 µM |
| CC(C)(C)c1n[nH]cc1OC1CCC(c2cc(Nc3ccc4c(c3F)CNS4(=O)=O)n[nH]2)C1 (single isomer, unassigned) [Example 74b, cis-5-((5-(3-((3-(tert-butyl)-1H-pyrazol-4-yl)oxy)cyclopentyl)-1H-pyrazol-3-yl)amino)-4-fluoro-2,3-dihydrobenzo[d]isothiazole 1,1-dioxide] | 0.671 µM | 0.018 µM |
| CC1(C)NC(=O)N(C2CCC(c3cc(Nc4ccc5c(c4F)CNS5(=O)=O)n[nH]3)C2)C1=O (single isomer, unassigned) [Example 84a, cis-3-(3-(3-((4-fluoro-1,1-dioxido-2,3-dihydrobenzo[d]isothiazol-5-yl)amino)-1H-pyrazol-5-yl)cyclopentyl)-5,5-dimethylimidazolidine-2,4-dione] | 0.237 µM | 0.0076 µM |
| CC1(C)NC(=O)N(C2CCC(c3cc(Nc4ccc5c(c4F)CNS5(=O)=O)n[nH]3)C2)C1=O (single isomer, unassigned) [Example 84b, cis-3-(3-(3-((4-fluoro-1,1-dioxido-2,3-dihydrobenzo[d]isothiazol-5-yl)amino)-1H-pyrazol-5-yl)cyclopentyl)-5,5-dimethylimidazolidine-2,4-dione] | 0.142 µM | 0.014 µM |
| CC(C)(C)c1cnc(C2CCC(c3cc(Nc4ccc5c(c4F)CNS5(=O)=O)n[nH]3)C2)o1 (single isomer, unassigned) [Example 91a, cis-5-((5-(3-(5-(tert-butyl)oxazol-2-yl)cyclopentyl)-1H-pyrazol-3-yl)amino)-4-fluoro-2,3-dihydrobenzo[d]isothiazole 1,1-dioxide] | 0.053 µM | 0.0013 µM |
| CC(C)(C)c1cnc(C2CCC(c3cc(Nc4ccc5c(c4F)CNS5(=O)=O)n[nH]3)C2)o1 (single isomer, unassigned) [Example 91b, cis-5-((5-(3-(5-(tert-butyl)oxazol-2-yl)cyclopentyl)-1H-pyrazol-3-yl)amino)-4-fluoro-2,3-dihydrobenzo[d]isothiazole 1,1-dioxide] | 2.57 µM | 0.023 µM |
| CCc1cnc(C2CCC(c3cc(Nc4ccc5c(c4F)CNS5(=O)=O)n[nH]3)C2)o1 (centres unmarked) [Example 92, 5-((5-(3-(5-ethyloxazol-2-yl)cyclopentyl)-1H-pyrazol-3-yl)amino)-4-fluoro-2,3-dihydrobenzo[d]isothiazole 1,1-dioxide] | 0.509 µM | 0.021 µM |
| O=S1(=O)NCc2c1ccc(Nc1cc(C3CCC(c4ncc(CO)o4)C3)[nH]n1)c2F (centres unmarked) [Example 93, 4-fluoro-5-((5-(3-(5-(hydroxymethyl)oxazol-2-yl)cyclopentyl)-1H-pyrazol-3-yl)amino)-2,3-dihydrobenzo[d]isothiazole 1,1-dioxide] | 1.76 µM | 0.07 µM |
| CCc1cnc(C2CCC(c3cc(Nc4ccc5c(c4)CS(=O)(=O)N5)n[nH]3)C2)o1 (centres unmarked) [Example 133, 5-((5-(3-(5-ethyloxazol-2-yl)cyclopentyl)-1H-pyrazol-3-yl)amino)-1,3-dihydrobenzo[c]isothiazole 2,2-dioxide] | 0.082 µM | 0.0062 µM |
| O=S1(=O)Cc2cc(Nc3cc(C4CCC(c5ncc(CO)o5)C4)[nH]n3)ccc2N1 (centres unmarked) [Example 134, 5-((5-(3-(5-(hydroxymethyl)oxazol-2-yl)cyclopentyl)-1H-pyrazol-3-yl)amino)-1,3-dihydrobenzo[c]isothiazole 2,2-dioxide] | 1.11 µM | 0.041 µM |
| CCc1cnc(C2CCC(c3cc(Nc4ccc5c(c4F)CS(=O)(=O)N5)n[nH]3)C2)o1 (centres unmarked) [Example 144, 5-((5-(3-(5-ethyloxazol-2-yl)cyclopentyl)-1H-pyrazol-3-yl)amino)-4-fluoro-1,3-dihydrobenzo[c]isothiazole 2,2-dioxide] | 0.334 µM | 0.016 µM |

— patent publication US20260200897A1, “4-((5-(3-(4-(PYRIDIN-2-YL)CYCLOPENTYL)-1H-PYRAZOL-3-YL)AMINO)-BENZENESULFONAMIDE DERIVATIVES AND SIMILAR COMPOUNDS AS CDK INHIBITORS FOR THE TREATMENT OF CANCER” (BeOne Medicines I GmbH, priority 2023, published 2026)
